Experimental data published in patent publication US9856279B2 (AGIOS PHARMACEUTICALS, INC, priority 2011, dated 2018).

The compounds below were run against IDH1 R132H (Homo sapiens, UniProt O75874, R132H) (assay: Assay for IDH1 R132H inhibitors (NADPH/aKG, resazurin detection)). Details: Table 3; enzyme assay, 50 minutes at room temperature; read-out: IC50 (IDH1 R132H Inhibition).
Type: biochemical
Summary of the method: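 Read-out is resorufin fluorescence (Ex544/Em590) 5 min after adding a 30 μM resazurin detection mix. Before that, mutant enzyme (0.2 μg/ml in its mix) ran 50 min at room temperature with compound, 8 uM NADPH and 2 mM aKG (mix levels) in Tris pH 7.5 with NaCl, MgCl2, BSA.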

Sequence of IDH1 R132H (O75874 whole entry R132H): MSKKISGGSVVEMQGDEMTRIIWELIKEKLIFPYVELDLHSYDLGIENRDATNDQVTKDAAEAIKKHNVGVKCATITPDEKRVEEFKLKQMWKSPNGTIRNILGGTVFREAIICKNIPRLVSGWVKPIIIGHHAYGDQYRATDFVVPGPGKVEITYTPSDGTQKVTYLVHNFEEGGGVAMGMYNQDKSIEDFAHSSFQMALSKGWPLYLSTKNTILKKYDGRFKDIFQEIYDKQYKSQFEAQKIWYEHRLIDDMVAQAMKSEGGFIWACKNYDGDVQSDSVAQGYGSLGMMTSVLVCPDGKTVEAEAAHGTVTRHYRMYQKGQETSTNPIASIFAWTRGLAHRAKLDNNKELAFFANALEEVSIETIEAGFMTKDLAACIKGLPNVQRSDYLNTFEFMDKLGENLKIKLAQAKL

| IC50 | Compound |
| --- | --- |
| 1 to 5 µM | COCCC(=O)N1CCN(c2nc(C3CC3)c(Cc3ccccc3)c(C)c2C#N)C[C@H]1C [Compound 245, (R)-5-benzyl-6-cyclopropyl-2-(4-(3-methoxypropanoyl)-3-methylpiperazin-1-yl)-4-methylnicotinonitrile] |
| 1 to 5 µM | COCCC(=O)N1CCN(c2nc(C(C)C)c(-c3ccc4ccccc4c3)cc2C#N)C[C@H]1C [Compound 211, (R)-6-isopropyl-2-(4-(3-methoxypropanoyl)-3-methylpiperazin-1-yl)-5-(naphthalen-2-yl)nicotinonitrile] |
| ≤ 1 µM | COCCC(=O)N1CCN(c2nc(C3CC3)c(-c3ccncc3)c(C)c2C#N)C[C@H]1C [Compound 260, (R)-2-cyclopropyl-6-(4-(3-methoxypropanoyl)-3-methylpiperazin-1-yl)-4-methyl-3,4′-bipyridine-5-carbonitrile] |
| 1 to 5 µM | CC(C)c1nc(N2CCN(C(=O)c3ccoc3)[C@H](C)C2)c(C#N)cc1-c1ccccc1 [Compound 150, (R)-2-(4-(furan-3-carbonyl)-3-methylpiperazin-1-yl)-6-isopropyl-5-phenylnicotinonitrile] |
| 1 to 5 µM | CC(C)c1cc(-c2ccccc2)c(C#N)c(N2CCN(C(=O)c3ccoc3)[C@H](C)C2)n1 [Compound 130, (R)-2-(4-(furan-3-carbonyl)-3-methylpiperazin-1-yl)-6-isopropyl-4-phenylnicotinonitrile] |
| 1 to 5 µM | COCCC(=O)N1CCN(c2nc(C(C)C)c(-c3ccc(C(F)(F)F)cc3)cc2C#N)C[C@H]1C [Compound 189, (R)-6-isopropyl-2-(4-(3-methoxypropanoyl)-3-methylpiperazin-1-yl)-5-(4-(trifluoromethyl)phenyl)-nicotinonitrile] |
| 5 to 15 µM | CC(C)c1cc(-c2ccccc2)c(C#N)c(N2CCN(C(=O)c3ccco3)C(c3ccccc3)C2)n1 (stereo not shown) [Compound 155, 2-(4-(furan-2-carbonyl)-3-phenylpiperazin-1-yl)-6-isopropyl-4-phenylnicotinonitrile] |
| 1 to 5 µM | CC(C)c1cc(-c2ccccc2)c(C#N)c(N2C[C@@H](C)N(C(=O)c3ccco3)[C@@H](C)C2)n1 [Compound 102, 2-((3S,5R)-4-(furan-2-carbonyl)-3,5-dimethylpiperazin-4-yl)-6-isopropyl-4-phenylnicotinonitrile] |
| ≤ 1 µM | COCCC(=O)N1CCN(c2nc(C3CC3)c(-c3ccsc3)cc2C#N)C[C@H]1C [Compound 246, (R)-6-cyclopropyl-2-(4-(3-methoxypropanoyl)-3-methylpiperazin-1-yl)-5-(thiophen-3-yl)nicotinonitrile] |
| 1 to 5 µM | CC(C)c1cc(-c2cccc(F)c2)c(C#N)c(N2CCN(C(=O)c3ccco3)CC2)n1 [Compound 114, 4-(3-fluorophenyl)-2-(4-(furan-2-carbonyl)piperazin-1-yl)-6-isopropylnicotinonitrile] |
| 5 to 15 µM | COc1ccccc1-c1cc(C(C)C)nc(N2CCN(C(=O)Cc3ccccc3)CC2)c1C#N [Compound 146, 6-isopropyl-4-(2-methoxyphenyl)-2-(4-(2-phenylacetyl)piperazin-1-yl)nicotinonitrile] |
| 5 to 15 µM | CC(C)c1cc(-c2ccccc2)nc(N2CCN(C(=O)c3ccoc3)C(C)C2)c1C#N (stereo not shown) [Compound 111] |
| 1 to 5 µM | CC(C)c1cc(-c2ccccc2)c(C#N)c(N2CCN(C(=O)Cc3ccccc3)[C@@H](C)C2)n1 [Compound 133, (S)-6-isopropyl-2-(3-methyl-4-(2-phenylacetyl)piperazin-1-yl)-4-phenylnicotinonitrile] |
| 1 to 5 µM | COCCC(=O)N1CCN(c2nc(C3CC3)c(-c3cc4ccccc4s3)cc2C#N)C[C@H]1C [Compound 247, (R)-5-(benzo[b]thiophen-2-yl)-6-cyclopropyl-2-(4-(3-methoxypropanoyl)-3-methylpiperazin-1-yl)nicotinonitrile] |
| 1 to 5 µM | COc1ccccc1-c1cc(C#N)c(N2CCN(C(=O)c3ccoc3)[C@H](C)C2)nc1C(C)C [Compound 175, (R)-2-(4-(furan-3-carbonyl)-3-methylpiperazin-1-yl)-6-isopropyl-5-(2-methoxyphenyl)nicotinonitrile] |
| 5 to 15 µM | CC(C)c1nc(N2CCN(C(=O)c3ccoc3)C(c3ccccc3)C2)c(C#N)cc1-c1ccccc1 (stereo not shown) [Compound 153, 2-(4-(furan-3-carbonyl)-3-phenylpiperazin-1-yl)-6-isopropyl-5-phenylnicotinonitrile] |

Same assay, conditions: enzyme assay of Example 12; read-out: IDH1R132H IC50

| IC50 | Compound |
| --- | --- |
| 0.5 to 1 µM | CCc1ccccc1-c1cc(C#N)c(N2CCN(C(=O)CCOC)[C@H](C)C2)nc1C1CC1 [Compound 334, (R)-6-cyclopropyl-5-(2-ethyl-phenyl)-2-[4-(3-methoxy-propionyl)-3-methyl-piperazin-1-yl]-nicotinonitrile] |
| 0.5 to 1 µM | COCCC(=O)N1CCN(c2nc(C3CC3)c(-c3c(C)cccc3C)cc2C#N)C[C@H]1C [Compound 357, (R)-6-cyclopropyl-5-(2,6-dimethyl-phenyl)-2-[4-(3-methoxy-propionyl)-3-methyl-piperazin-1-yl]-nicotinonitrile] |
| 0.5 to 1 µM | COCCC(=O)N1CCN(c2nc(C3CC3)c(-c3csc(NC(=O)OC(C)(C)C)n3)cc2C#N)C[C@H]1C [Compound 395, (R)-(4-{5-cyano-2-cyclopropyl-6-[4-(3-methoxy-propionyl)-3-methyl-piperazin-1-yl]-pyridin-3-yl}-thiazol-2-yl)-carbamic acid tert-butyl ester] |
| 0.5 to 1 µM | N#CCn1cc(-c2cc(C#N)c(N3CCN(C(=O)C4CC4)[C@H](C4CC4)C3)nc2C2CC2)cn1 [Compound 486, (R)-5-(1-(cyanomethyl)-1H-pyrazol-4-yl)-2-(4-(cyclopropanecarbonyl)-3-cyclopropylpiperazin-1-yl)-6-cyclopropylnicotinonitrile] |
| < 0.5 µM | N#Cc1cc(-c2cccc3nc(N)ncc23)c(C2CC2)nc1N1CCN(C(=O)C2CC2)[C@H](C2CC2)C1 [Compound 538, (R)-5-(2-aminoquinazolin-5-yl)-2-(4-(cyclopropanecarbonyl)-3-cyclopropylpiperazin-1-yl)-6-cyclopropylnicotinonitrile] |
| 0.5 to 1 µM | COCCC(=O)N1CCN(c2nc(C3CC3)c(-c3cccc(CC(=O)OC)c3)cc2C#N)C[C@H]1C [Compound 291, (R)-methyl 2-(3-(5-cyano-2-cyclopropyl-6-(4-(3-methoxypropanoyl)-3-methylpiperazin-1-yl)pyridin-3-yl)phenyl)acetate] |
| 0.5 to 1 µM | Cc1c(C#N)c(N2CCN(C(=O)CC(F)(F)F)[C@H](C3CC3)C2)nc(C2CC2)c1-c1ccc(F)cc1 [Compound 300, (R)-6-cyclopropyl-2-(3-cyclopropyl-4-(3,3,3-trifluoropropanoyl)piperazin-1-yl)-5-(4-fluorophenyl)-4-methylnicotinonitrile] |
| < 0.5 µM | N#Cc1cc(-c2cccc3nc(Cl)ccc23)c(C2CC2)nc1N1CCN(C(=O)C2CC2)[C@H](C2CC2)C1 [Compound 549, (R)-5-(2-chloroquinolin-5-yl)-2-(4-(cyclopropanecarbonyl)-3-cyclopropylpiperazin-1-yl)-6-cyclopropylnicotinonitrile] |
| < 0.5 µM | COCCC(=O)N1CCN(c2nc(C3CC3)c(-c3cnc(OC)c4ccccc34)cc2C#N)C[C@H]1C [Compound 474, (R)-6-cyclopropyl-5-(1-methoxy-isoquinolin-4-yl)-2-[4-(3-methoxy-propionyl)-3-methyl-piperazin-1-yl]-nicotinonitrile] |
| < 0.5 µM | N#Cc1cc(-c2ccnc(N)n2)c(C2CC2)nc1N1CCN(C(=O)CC(F)(F)F)[C@H](C2CC2)C1 [Compound 534] |
| < 0.5 µM | COCCC(=O)N1CCN(c2nc(C3CC3)c(-c3cncc(C)c3)c(C)c2C#N)C[C@H]1C [Compound 318] |
| < 0.5 µM | COCCC(=O)N1CCN(c2nc(C3CC3)c(-c3ccc(C(=O)OC)cc3)cc2C#N)C[C@H]1C [Compound 665, (R)-methyl-4-(5-cyano-2-cyclopropyl-6-(4-(3-methoxypropanoyl)-3-methylpiperazin-1-yl)pyridin-3-yl)benzoate] |
| 0.5 to 1 µM | COC(=O)N1CCN(c2nc(C3CC3)c(-c3cccc4cnccc34)cc2C#N)C[C@H]1C1CC1 [Compound 489, (R)-methyl 4-(3-cyano-6-cyclopropyl-5-(isoquinolin-5-yl)pyridin-2-yl)-2-cyclopropylpiperazine-1 carboxylate] |
| 0.5 to 1 µM | C[C@@H]1CN(c2nc(C3CC3)c(-c3cccc4c3CN(C)C4=O)cc2C#N)CCN1C(=O)C1CC1 [Compound 461, (R)-2-(4-(cyclopropanecarbonyl)-3-methylpiperazin-1-yl)-6-cyclopropyl-5-(2-methyl-1-oxoisoindolin-4-yl)nicotinonitrile] |
| < 0.5 µM | COCCC(=O)N1CCN(c2nc(C3CC3)c(-c3cccc(F)c3F)c(C)c2C#N)C[C@H]1C [Compound 405, (R)-6-cyclopropyl-5-(2,3-difluoro-phenyl)-2-[4-(3-methoxy-propionyl)-3-methyl-piperazin-1-yl]-4-methyl-nicotinonitrile] |
| < 0.5 µM | C[C@@H]1CN(c2nc(C3CC3)c(-c3cccc4cnccc34)cc2C#N)CCN1C(=O)[C@@H]1C[C@H]1CO [Compound 505, 6-cyclopropyl-2-((R)-4-((1R,2R)-2-(hydroxymethyl)cyclopropanecarbonyl)-3-methylpiperazin-1-yl)-5-(isoquinolin-5-yl)nicotinonitrile] |
| < 0.5 µM | C=Cc1cc(-c2c(C3CC3)nc(N3CCN(C(=O)C=C4CCC4)[C@H](C4CC4)C3)c(C#N)c2C)ccn1 [Compound 820, (R)-6-(4-(2-cyclobutylideneacetyl)-3-cyclopropylpiperazin-1-yl)-2-cyclopropyl-4-methyl-2′-vinyl-3,4′-bipyridine-5-carbonitrile] |
| < 0.5 µM | COCCC(=O)N1CCN(c2nc(C3CC3)c(-c3ccc4cc[nH]c4c3)cc2C#N)C[C@H]1C [Compound 289, (R)-6-cyclopropyl-5-(1H-indol-6-yl)-2-(4-(3-methoxypropanoyl)-3-methylpiperazin-1-yl)nicotinonitrile] |
